Target: HIV protease (Human immunodeficiency virus type 1 group M subtype B, UniProt P03366)
Assay: biochemical
Conditions: protease expressed in Escherichia coli; peptide substrate Val-Ser-Gln-Asn-(betanapthyl)Ala-Pro-Ile-Val; 50 mM Na acetate, pH 5.5, 30° C., 1 hour; HPLC
Description: Assay for Inhibition of Microbial Expressed Viral Protease
Inhibition studies of the reaction of the protease expressed in Escherichia coli with a peptide substrate Val-Ser-Gln-Asn-(betanapthyl)Ala-Pro-Ile-Val, 0.5 mg/mL at the time the reaction is initiated! were in 50 mM Na acetate, pH 5.5, at 30° C. for 1 hour. Various concentrations of inhibitor in 1.0 ul DMSO were added to 25 ul of the peptide solution in water. The reaction is initiated by the addition of 15 ul of 0.33 nM protease (0.11 ng) in a solution of 0.133 M Na acetate pH 5.5 and 0.26% bovine serum albumin. The reaction was quenched with 160 ul of 5% phosphoric acid. Products of the reaction were separated by HPLC (VYDAC wide pore 5 cm C-18reverse phase, acetonitrile gradient, 0.1% phosphoric acid). The extent of inhibition of the reaction was determined from the peak heights of the products.

Structure (SMILES) | IC50 [µM]
CC(C)(C)NC(=O)[C@@H]1C[C@@H]2CCCC[C@@H]2CN1C[C@@H](O)[C@H](Cc1ccccc1)NC(=O)O[C@H]1CCS(=O)(=O)C1 [B, Cis-N-tert-butyl-decahydro-2 2(R)-hydroxy-4-phenyl-3(S)-3(S)-1,1-dioxotetr ahydrothien-3-yloxycarbonylamino !-butyl!-(4aS, 8aS )-isoquinoline-3(S)-carboxamide hydrate] | ~0.059
CC(C)(C)NC(=O)[C@@H]1C[C@@H]2CCCC[C@@H]2CN1C[C@@H](O)[C@H](Cc1ccccc1)NC(=O)O[C@H]1CCOC1 [Compound A, cis-N-tert-butyl-decahydro-2 2(R)hydroxy-4-phenyl-3(S)-3(S)-tetrahydrofuranyloxycarbonylamino !-butyl!-(4aS, 8aS )-isoquinoline-3(S)carboxamide] | ~0.26
CC(C)[C@@H]1[C@H](OC(=O)N[C@@H](Cc2ccccc2)[C@H](O)CN2C[C@H]3CCCC[C@H]3C[C@H]2C(=O)NC(C)(C)C)CCS1(=O)=O [Compound C, N-tert-butyl-decahydro-2 2(R)-hydroxy-4-phenyl-3(S)-1,1-dioxo-2(R)-methylethyl-3(R)-tetrahydrothienyloxycarbonylamino!butyl!-(4aS, 8aS) isoquinoline-3(S)-carboxamide] | ~0.004

— US5502060A, “HIV protease inhibitors” (Merck & Co., Inc., priority 1994, dated 1996)
